“And” between values parts separate entries of the source, which are not always exact repeats. Identical values can stand only once.
Test system: MDA-MB-231 complex spheroid viability
Experiment: Anticancer human tumor MDA-MB-231/ATCC cell line growth inhibition;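 note: drug exposure lasted 7 days starting on day 3 of spheroid growth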
Conditions: for viability, T/C: stronger effect = lower value
Source text: Multicellular complex tumor spheroid response to LSD1 Inhibitor Iadademstat in combination with a variety of drugs and investigational agents in selected tumor cell lines
The current study was undertaken to assess response to LSD1 inhibitors in combination with standard-of-care drugs and investigational agents in solid tumor complex spheroid models as well as in the K-562 leukemia. Complex spheroids include a stromal component modeled by human endothelial cells (HUVEC) and fibroblasts modeled by human mesenchymal stem cells (MSCs). The concentration ranges selected for each drug and investigational agent were based upon clinically achievable concentrations if the clinical Cmax of the agent was known.
Compounds. The drugs and investigational agents used in this study are listed on Table 1. All of the agents used, including staurosporine (NSC755774) and gemcitabine (NSC613327), were obtained from the Developmental Therapeutics Program, NCI. FDA-approved anticancer drugs are available from the NCI at http://dtp.nci.nih.gov/branches/dscb/oncology_drugset_explanation.html. Drugs and investigational agents were >95% pure by proton nuclear magnetic resonance (NMR) and liquid chromatography/mass spectrometry (LC/MS). Stock solutions were prepared at 400x in DMSO, stored at -70 degrees C, and diluted in fresh medium prior to their use. The final concentration of DMSO in cell culture wells never exceeded 0.25% (v/v). The FDA-approved anticancer drug set is available from the Developmental Therapeutics Program at https://dtp.cancer.gov/organization/dscb/obtaining/available_plates.htm. All drugs and investigational agents were tested over a range starting from a high concentration at or near the clinical Cmax and decreasing in half-log increments. If the clinical Cmax for an agent had not been determined, the highest concentration tested was 10 microM.
Cell Lines. The patient-derived cancer cell (PDC) lines: 292921-168-R-J2-PDC, K24384-001-R-PDC, and 521955-158-R2-J5-PDC pancreatic carcinomas, 556581-035-R-J1 ovarian carcinoma, 324938-238-R-J1-PDC, 855422-203-R-J1-PDC and 883617-216-R-J1-PDC urothelial bladder carcinomas, 743489-274-T-PDC renal cell carcinoma, 138582-R-J1 Merkel cell tumor, K60290-347-R-J1 and K57222-313-R-J1-PDC glioblastomas, 653999-131-R-J2-PDC, LG0703-F948-PDC, and 349418-098-R-PDC non-small cell lung carcinomas, 885512-296-R-J2-PDC, 171881-019-R-J1-PDC breast carcinomas and 186277-243-T-J2-PDC and 233499-124-R-J2-PDC colon carcinomas were obtained from the NCI Patient-Derived Models Repository (PDMR, https://pdmr.cancer.gov). The established cell lines NCI/ADR-RES (RRID:CVCL_14520 and OVCAR-5 (RRID:CVCL_1628) ovarian carcinomas, 786-O (RRID:CVCL_1051) and A498 (RRID:CVCL_A498) renal cell carcinoma, NCI-H211 (ATCC, cat. CRL-5824; RRID:CVCL_1529), NCI-H196 (ATCC, cat. CRL-5823, RRID:CVCL_1509), SW 1271 (ATCC, cat. CRL-2177, RRID:CVCL_1716) and NCI-H1876 (ATCC, cat. CRL-5902, RRID:CVCL_1503) small cell lung carcinomas, MDA-MB-231 (RRID:CVCL_0062) and MDA-MB-468 (RRID:CVCL_0419)breast carcinomas (10-12). Pooled donor human umbilical vein endothelial cells (HUVEC, Lonza, cat. CC-2519) and human mesenchymal stem cells (hMSC, Lonza, cat. PT-2501) were purchased from Lonza (Walkersville, MD).
Cell Culture. All cells were maintained in an incubator at 37 degrees C and 5% CO2 with 95% humidity. The PDC lines were cultured according to standard operating procedures established by the NCI PDMR (https://pdmr.cancer.gov). Briefly all PDCs were thawed and cultured in Matrigel-coated flasks prepared with a working solution of 1X Ham's F-12 nutrient mix, without supplementation (Invitrogen, Waltham, MA, cat. 11765054), 100 U/mL penicillin-streptomycin (Invitrogen, cat. 15140122), and 2.5% Matrigel (Corning Inc., Corning, NY, cat. 354248) for the first three passages. […]

[1] = curve of first compound, second compound 0.1 µM
[2] = curve of first compound, second compound 0.316 µM
[3] = curve of first compound, second compound 1 µM
[4] = curve of first compound, second compound 3.16 µM
[5] = curve of first compound, second compound 10 µM
[6] = second compound 0.1 µM, first compound 0.00316 µM
[7] = second compound 0.1 µM, first compound 0.01 µM
[8] = second compound 0.1 µM, first compound 0.0316 µM
[9] = second compound 0.1 µM, first compound 0.1 µM
[10] = second compound 0.316 µM, first compound 0.00316 µM
[11] = second compound 0.316 µM, first compound 0.01 µM
[12] = second compound 0.316 µM, first compound 0.0316 µM
[13] = second compound 0.316 µM, first compound 0.1 µM
[14] = second compound 1 µM, first compound 0.00316 µM
[15] = second compound 1 µM, first compound 0.01 µM
[16] = second compound 1 µM, first compound 0.0316 µM
[17] = second compound 1 µM, first compound 0.1 µM
[18] = second compound 3.16 µM, first compound 0.00316 µM
[19] = second compound 3.16 µM, first compound 0.01 µM
[20] = second compound 3.16 µM, first compound 0.0316 µM
[21] = second compound 3.16 µM, first compound 0.1 µM
[22] = second compound 10 µM, first compound 0.00316 µM
[23] = second compound 10 µM, first compound 0.01 µM
[24] = second compound 10 µM, first compound 0.0316 µM
[25] = second compound 10 µM, first compound 0.1 µM

`CC1COCCN1c1cc(-c2ccnn2C)c2ccnc(-c3ccn[nH]3)c2n1` (configuration not stated) + NC1CC1c1ccc(-c2cccc(O)c2)cc1 was tested, and the IC50 [1] was under 3.16 nM, the IC50 [2] was under 3.16 nM and the IC50 [3] was under 3.16 nM. For the same compound, the IC50 [4] was under 3.16 nM, the IC50 [5] was under 3.16 nM and the viability, T/C [6] was 38.1%. It also gave a viability, T/C [7] of 32%, a viability, T/C [8] of 20.5% and a viability, T/C [9] of 16.4%. It also gave a viability, T/C (second compound 0.1 µM, first compound 0.316 µM) of 15.8%, a viability, T/C (second compound 0.1 µM, first compound 1 µM) of 21.4% and a viability, T/C [10] of 32.1%. It also gave a viability, T/C [11] of 28.7%, a viability, T/C [12] of 20.7% and a viability, T/C [13] of 16.6%. The viability, T/C (second compound 0.316 µM, first compound 0.316 µM) was 15.8%, the viability, T/C (second compound 0.316 µM, first compound 1 µM) was 22.5% and the viability, T/C [14] was 33.5%. It also gave a viability, T/C [15] of 30.8%, a viability, T/C [16] of 20.9% and a viability, T/C [17] of 15.3%. It also gave a viability, T/C (second compound 1 µM, first compound 0.316 µM) of 14.3%, a viability, T/C (second compound 1 µM, first compound 1 µM) of 24% and a viability, T/C [18] of 33.4%. For the same compound, the viability, T/C [19] was 27.9%, the viability, T/C [20] was 19.7% and the viability, T/C [21] was 16.9%. For the same compound, the viability, T/C (second compound 3.16 µM, first compound 0.316 µM) was 15.2%, the viability, T/C (second compound 3.16 µM, first compound 1 µM) was 22% and the viability, T/C [22] was 25.7%. For the same compound, the viability, T/C [23] was 20.7%, the viability, T/C [24] was 18.1% and the viability, T/C [25] was 16.2%. The viability, T/C (second compound 10 µM, first compound 0.316 µM) was 15% and the viability, T/C (second compound 10 µM, first compound 1 µM) was 20.5%.

In the case of `Nc1ncn(C2CC(O)C(CO)S2)c(=O)n1` (configuration not stated), the viability, T/C (compound 0.000949 µM) is reported as 90.3% and 85%, the viability, T/C (compound 0.003 µM) is reported as 72.3% and 68.7% and the viability, T/C (compound 0.00949 µM) is reported as 61% and 45.8%. For the same compound, the viability, T/C (compound 0.03 µM) was 37.2% and 31.3%, the viability, T/C (compound 0.0949 µM) was 20.2% and 19.9% and the viability, T/C (compound 0.3 µM) was 11.1% and 9.34%. For the same compound, the IC50 (curve of compound) was 14.8 nM and 8.3 nM.

`CCN(c1cc(-c2ccc(CN3CCOCC3)cc2)cc(C(=O)NCc2c(C)cc(C)[nH]c2=O)c1C)C1CCOCC1` + NC1CC1c1ccc(-c2cccc(O)c2)cc1 gave an IC50 [1] of 143 nM, an IC50 [2] of 99.7 nM and an IC50 [3] of 99.7 nM. It also gave an IC50 [4] of 92 nM, an IC50 [5] of 13.1 nM and a viability, T/C (second compound 0.1 µM, first compound 0.00949 µM) of 89.6%. The viability, T/C (second compound 0.1 µM, first compound 0.03 µM) was 82%, the viability, T/C (second compound 0.1 µM, first compound 0.0949 µM) was 51.3% and the viability, T/C (second compound 0.1 µM, first compound 0.3 µM) was 40%. For the same compound, the viability, T/C (second compound 0.1 µM, first compound 0.949 µM) was 27.8%, the viability, T/C (second compound 0.1 µM, first compound 3 µM) was 17.8% and the viability, T/C (second compound 0.316 µM, first compound 0.00949 µM) was 73.1%. It also gave a viability, T/C (second compound 0.316 µM, first compound 0.03 µM) of 70.2%, a viability, T/C (second compound 0.316 µM, first compound 0.0949 µM) of 46.2% and a viability, T/C (second compound 0.316 µM, first compound 0.3 µM) of 36.4%. It also gave a viability, T/C (second compound 0.316 µM, first compound 0.949 µM) of 25.2%, a viability, T/C (second compound 0.316 µM, first compound 3 µM) of 16.6% and a viability, T/C (second compound 1 µM, first compound 0.00949 µM) of 68.2%. For the same compound, the viability, T/C (second compound 1 µM, first compound 0.03 µM) was 69.7%, the viability, T/C (second compound 1 µM, first compound 0.0949 µM) was 46.7% and the viability, T/C (second compound 1 µM, first compound 0.3 µM) was 35.1%. It also gave a viability, T/C (second compound 1 µM, first compound 0.949 µM) of 23.9%, a viability, T/C (second compound 1 µM, first compound 3 µM) of 17.1% and a viability, T/C (second compound 3.16 µM, first compound 0.00949 µM) of 72.5%. The viability, T/C (second compound 3.16 µM, first compound 0.03 µM) was 71.6%, the viability, T/C (second compound 3.16 µM, first compound 0.0949 µM) was 44.7% and the viability, T/C (second compound 3.16 µM, first compound 0.3 µM) was 34.3%. It also gave a viability, T/C (second compound 3.16 µM, first compound 0.949 µM) of 21.8%, a viability, T/C (second compound 3.16 µM, first compound 3 µM) of 16.6% and a viability, T/C (second compound 10 µM, first compound 0.00949 µM) of 52.6%. The viability, T/C (second compound 10 µM, first compound 0.03 µM) was 43.1%, the viability, T/C (second compound 10 µM, first compound 0.0949 µM) was 34.3% and the viability, T/C (second compound 10 µM, first compound 0.3 µM) was 24.6%. The viability, T/C (second compound 10 µM, first compound 0.949 µM) was 16.8% and the viability, T/C (second compound 10 µM, first compound 3 µM) was 12.2%.

Work on `CC[C@@]1(O)C(=O)OCc2c1cc1n(c2=O)Cc2cc3c(CN(C)C)c(O)ccc3nc2-1` + NC1CCC(NC2CC2c2ccccc2)CC1 yielded an IC50 [1] of 2.37 nM, an IC50 [2] of 2.18 nM and an IC50 [3] of 2.28 nM. It also gave an IC50 [4] of 1.46 nM, an IC50 [5] of 0.603 nM and a viability, T/C (second compound 0.1 µM, first compound 0.000316 µM) of 91.6%. The viability, T/C (second compound 0.1 µM, first compound 0.001 µM) was 70.6%, the viability, T/C [6] was 40.3% and the viability, T/C [7] was 29.1%. It also gave a viability, T/C [8] of 22.5%, a viability, T/C [9] of 13% and a viability, T/C (second compound 0.316 µM, first compound 0.000316 µM) of 87.6%. It also gave a viability, T/C (second compound 0.316 µM, first compound 0.001 µM) of 66.3%, a viability, T/C [10] of 40% and a viability, T/C [11] of 28.9%. It also gave a viability, T/C [12] of 22.2%, a viability, T/C [13] of 12.4% and a viability, T/C (second compound 1 µM, first compound 0.000316 µM) of 87.3%. For the same compound, the viability, T/C (second compound 1 µM, first compound 0.001 µM) was 69.6%, the viability, T/C [14] was 38.9% and the viability, T/C [15] was 29.7%. It also gave a viability, T/C [16] of 22.4%, a viability, T/C [17] of 13.2% and a viability, T/C (second compound 3.16 µM, first compound 0.000316 µM) of 74.4%. For the same compound, the viability, T/C (second compound 3.16 µM, first compound 0.001 µM) was 56.8%, the viability, T/C [18] was 36.5% and the viability, T/C [19] was 28.9%. For the same compound, the viability, T/C [20] was 19.9%, the viability, T/C [21] was 13.2% and the viability, T/C (second compound 10 µM, first compound 0.000316 µM) was 57.8%. For the same compound, the viability, T/C (second compound 10 µM, first compound 0.001 µM) was 44.2%, the viability, T/C [22] was 31.3% and the viability, T/C [23] was 23.2%. For the same compound, the viability, T/C [24] was 16% and the viability, T/C [25] was 12.2%.

Source: PubChem BioAssay AID1918953 (Molecular Pharmacology Branch, DTP, NCI, 2023)
